Where “and” joins values, the source holds several entries; their conditions need not be identical. Equal values may be shown once.
Tests used:
diabetic rats [1] = test: BMOV single oral gavage, STZ diabetic rats; assay type: in vivo, rat; details: 160 μmol/kg
non diabetic rats = test: Previous laboratory studies of BMOV in non diabetic rats; assay type: in vivo, rat; details: 0.75 mg/ml
Experimental: (§1) 11 SHR and 12 WKY rats (all male) were procured at 4 weeks of age from Charles River, Canada. The animals were divided into four experimental groups: SHR (untreated n=5), SHRO (BMOV treated n=6), WKY (untreated n=8) and WKYO (BMOV treated n=4). Chronic BMOV treatment was commenced on the SHRO and WKYO groups at 5 weeks of age. The rats were given BMOV (0.75 mg/ml) ad libitum in the drinking water.

WKY rats = test: Blood pressure study with BMOV, Wistar Kyoto rats; assay type: in vivo, rat; details: WKYO, 0.75 mg/ml in drinking water
Experimental: as §1
(§2) Once at week 5 and then starting at week 8, weekly measurements of blood pressure were done on all groups for the next 3 weeks. Blood samples were also collected via the tail vein during the weeks mentioned above. These were centrifuged and plasma was collected for subsequent glucose and insulin analyses. Chronic blood pressure measurements were done on conscious rats, using the tail cuff method without external preheating. Initial experiments to validate the tail cuff method by comparing the readings obtained with it to those obtained by direct arterial cannulation were conducted.

[2] = log p (partition coefficient); assay type: physicochemical
SHR rats = test: Blood pressure reduction by BMOV, spontaneously hypertensive rats; assay type: in vivo, rat; details: SHRO, 0.75 mg/ml in drinking water
Experimental: as §1, §2

diabetic rats [3] = test: Prolonged administration in drinking water (77 days), STZ diabetic rats; assay type: in vivo, rat
Experimental: BMOV was administered to normal and diabetic rats in drinking water.
The study was composed of 4 groups of animals Control (8 animals), Control-Treated (11 animals), Diabetic (11 animals) and Diabetic-Treated (12 animals). The diabetic state was induced by injecting STZ at 60 mg/kg dissolved in 0.9% NaCl I.V. via the tail vein to anaesthetized rats. The two control groups were injected with 0.9% NaCl I.V. through the tail vein. The diabetic state was determined with a "Testape"™ test at 3 days post-injection and later confirmed with a glucometer test. Blood glucose and insulin assays were carried out post-injection over the course of the study. Treatment according to the invention was started 1 week after determination of the diabetic state.
Treated diabetic animals received between 0.3 and 0.5 mmol/kg of the compound/day in drinking water over a 77 day period. Treated control animals received a slightly lower dose (0.2-0.3 mmol/day) over the same period. The concentration of BMOV in the drinking water was varied between 1.6 and 3.2 mM. The reason for the differing doses in the two sets of animals is that the two groups drank different amounts of water daily; it was difficult to attain the same dose in both groups.
1. As indicated above, 4 groups of animals were studied, but the diabetic-treated group was sub-divided to diabetic-treated responders (8 animals) and diabetic-treated non-responders (4 animals). Curve 1 is the control group, curve 2 the control-treated group, curve 3 the diabetic group, curve 4 is the diabetic-treated responders and curve 5 is the diabetic-treated non-responders. […] Treatment began with a […] solution of the compound. […] On day 24, the concentration was increased to 2.37 mM (0.7 mg/ml).

diabetic rats [4] = test: Comparison of BMOV and vanadyl kojate, acute time course of plasma glucose, rats made diabetic with STZ; assay type: in vivo, rat; set-up: plasma glucose level: unit not given here
Experimental: Using BMOV and Vanadyl Kojate as prepared in Examples 1 and 2 above, the relative efficacy of the two compounds was assessed using rats made diabetic with STZ. Again the animals were divided into responder and non-responder groups. For a 0.063 mmol V/kg ip injection, BMOV gave a 50:50 split between responder and non-responder groups whereas for vanadyl kojate the ratio was 60:40. On oral gavage of 0.55 mmol V/kg the responder:non-responder ratios were 50:50 and 57:43 respectively (n=10). However over a 12 day test period, there was a 100% response in terms of blood glucose reduction for diabetic rats receiving vanadyl kojate orally.

diabetic rats [5] = test: Blood glucose response after i.p. injection in STZ diabetic rats; assay type: in vivo, rat
Experimental: Initial experiments were carried out to determine pharmacological effectiveness of BMOV. Using male rats, made diabetic by the injection of streptoxoticin (STZ) at a dose of 60 mg/kg i.v., BMOV was initially given by intraperitoneal (i.p.) injection as a suspension in 1% methyl cellulose.
Two animals developed hypoglycemia.

diabetic rats [6] = test: BMOV in drinking water, STZ diabetic rats; assay type: in vivo, rat
[7] = diabetic-treated non-responders, pretreatment, mean ± S.E.M.
[8] = diabetic-treated non-responders, week 6, mean ± S.E.M.
[9] = diabetic-treated responders, pretreatment, mean ± S.E.M.
[10] = diabetic-treated responders, week 6, mean ± S.E.M.

For `Cc1occc(=O)c1[O-].Cc1occc(=O)c1[O-].[O]=[V+2]` [BMOV, Bis(maltolato)oxovanadium(IV)], the “rats responding with a decrease in blood glucose” value (diabetic rats [1]) was “Six out of six”, the “time of peak fall in blood glucose” value (diabetic rats [1]) was 5 h and the “time for return of blood glucose to diabetic levels” value (diabetic rats [1]; usually) was ≤ 12 h. For the same molecule, the plasma insulin levels (non diabetic rats) was “sufficient to lower plasma insulin levels”, the “systolic blood pressure, normotensive controls” value (WKY rats) was “without having any effect” and the log p [2] was 0.12. For the same molecule, the “development of high blood pressure, in words” value (SHR rats) was “prevent the development of high blood pressure”, the “decrease in systolic blood pressure” value (SHR rats; tail cuff) was 25-30 mmHg and the “weight, diabetic-treated groups vs all other groups” value (diabetic rats [3]; both diabetic-treated groups, by day 7) was “significant difference”. For the same molecule, the “plasma triglyceride and cholesterol, in words” value (diabetic rats [3]; diabetic animals) was “restored to control values”, the fluid intake (diabetic rats [3]; diabetic treated (diabetic about 275 ml/rat)) was “about 60 ml/rat” and the food intake (diabetic rats [3]; diabetic-treated (from greater than 50 grams per day)) was “about 30 grams per day”. For the same molecule, the “weight, non-responders vs other 4 groups” value (diabetic rats [3]; diabetic-treated non-responders, by day 28) was “significantly different from the other 4 groups”, the Cholesterol (diabetic rats [3]; [7]) was 1.51 ± 0.07 mmol/L and the Triglyceride (diabetic rats [3]; [7]) was 1.85 ± 0.41 mmol/L. For the same molecule, the Cholesterol (diabetic rats [3]; [8]) was 1.48 ± 0.09 mmol/L, the Triglyceride (diabetic rats [3]; [8]) was 2.31 ± 0.19 mmol/L and the hypoglycemia (diabetic rats [3]; diabetic-treated responders, before day 18, treatment withheld) was “developed in several animals”. For the same molecule, the “blood glucose, in words” value (diabetic rats [3]; diabetic-treated responders, by day 14) was “euglycemic”, the “weight, responders vs diabetic group” value (diabetic rats [3]; diabetic-treated responders, by day 28) was “no longer a significant difference” and the Cholesterol (diabetic rats [3]; [9]) was 1.67 ± 0.10 mmol/L. The Triglyceride (diabetic rats [3]; [9]) was 1.10 ± 0.09 mmol/L, the Cholesterol (diabetic rats [3]; [10]) was 1.58 ± 0.11 mmol/L and the Triglyceride (diabetic rats [3]; [10]) was 1.70 ± 0.18 mmol/L. The weight gain (diabetic rats [3]; diabetic-treated, 77 days, drinking water) was 140 g, the “food consumption vs control, in words” value (diabetic rats [3]; diabetic-treated, at any time) was “no significant difference” and the Insulin values (diabetic rats [3]; diabetic-treated, day 28 of BMOV study) was 22.0 ± 1.6 μU/ml. The food intake (diabetic rats [3]; diabetic-treated, day 77) was 28±1.6 grams per day, the “animals responding (blood glucose lowered)” value (diabetic rats [3]; diabetic-treated, drinking water) was 8 out of the 12 and eight of the twelve and the “fluid consumption vs control, in words” value (diabetic rats [3]; diabetic-treated, throughout) was “no significant difference”. The blood glucose (diabetic rats [3]; non-responders (four of the twelve rats), on any given day) was 6 to 30 mM, the “blood glucose, in words” value (diabetic rats [3]; responders, by day 24) was “normal blood glucose” and the blood glucose (diabetic rats [3]; responders, from day 7 onwards (from 20 mM)) was “less than 10 mM”. The cataracts (diabetic rats [3]; treated animals not controlled by the drug, end of 77 days) was “One of the four”, the cataracts (diabetic rats [3]; treated diabetic rats controlled by the drug, end of 77 days (untreated diabetic 5/11)) was 0/8 and the “water solubility, in words” value (Water solubility) was “quite water-soluble”. For the same molecule, the water solubility (Water solubility; water) was “about 7 mM and ~2 mg/mL”, the plasma glucose level (diabetic rats [4]; i.p. 0.063 mmol/kg, nonresponders (DTN), 0 h) was 19.42 and the plasma glucose level (diabetic rats [4]; i.p. 0.063 mmol/kg, nonresponders (DTN), 1 h) was 18.82. It also gave a plasma glucose level (diabetic rats [4]; i.p. 0.063 mmol/kg, nonresponders (DTN), 2 h) of 18.51, a plasma glucose level (diabetic rats [4]; i.p. 0.063 mmol/kg, nonresponders (DTN), 4 h) of 17.94 and a plasma glucose level (diabetic rats [4]; i.p. 0.063 mmol/kg, nonresponders (DTN), 6 h) of 18.08. The plasma glucose level (diabetic rats [4]; i.p. 0.063 mmol/kg, nonresponders (DTN), 8 h) was 17.77, the plasma glucose level (diabetic rats [4]; i.p. 0.063 mmol/kg, nonresponders (DTN), 12 h) was 19.07 and the plasma glucose level (diabetic rats [4]; i.p. 0.063 mmol/kg, nonresponders (DTN), 24 h) was 19.01. It also gave a plasma glucose level (diabetic rats [4]; i.p. 0.063 mmol/kg, responders (DTR), 0 h) of 17.51, a plasma glucose level (diabetic rats [4]; i.p. 0.063 mmol/kg, responders (DTR), 1 h) of 14.77 and a plasma glucose level (diabetic rats [4]; i.p. 0.063 mmol/kg, responders (DTR), 2 h) of 12.65. For the same molecule, the plasma glucose level (diabetic rats [4]; i.p. 0.063 mmol/kg, responders (DTR), 4 h) was 10.6, the plasma glucose level (diabetic rats [4]; i.p. 0.063 mmol/kg, responders (DTR), 6 h) was 10.28 and the plasma glucose level (diabetic rats [4]; i.p. 0.063 mmol/kg, responders (DTR), 8 h) was 9.08. The plasma glucose level (diabetic rats [4]; i.p. 0.063 mmol/kg, responders (DTR), 12 h) was 9.38, the plasma glucose level (diabetic rats [4]; i.p. 0.063 mmol/kg, responders (DTR), 24 h) was 7.15 and the plasma glucose level (diabetic rats [4]; oral gavage 0.55 mmol/kg, nonresponders (DTN), 0 h) was 19.31. For the same molecule, the plasma glucose level (diabetic rats [4]; oral gavage 0.55 mmol/kg, nonresponders (DTN), 1 h) was 18.05, the plasma glucose level (diabetic rats [4]; oral gavage 0.55 mmol/kg, nonresponders (DTN), 2 h) was 17.57 and the plasma glucose level (diabetic rats [4]; oral gavage 0.55 mmol/kg, nonresponders (DTN), 4 h) was 16.92. It also gave a plasma glucose level (diabetic rats [4]; oral gavage 0.55 mmol/kg, nonresponders (DTN), 6 h) of 16.43, a plasma glucose level (diabetic rats [4]; oral gavage 0.55 mmol/kg, nonresponders (DTN), 8 h) of 15.02 and a plasma glucose level (diabetic rats [4]; oral gavage 0.55 mmol/kg, nonresponders (DTN), 12 h) of 17.17. It also gave a plasma glucose level (diabetic rats [4]; oral gavage 0.55 mmol/kg, nonresponders (DTN), 24 h) of 18.07, a plasma glucose level (diabetic rats [4]; oral gavage 0.55 mmol/kg, responders (DTR), 0 h) of 18.09 and a plasma glucose level (diabetic rats [4]; oral gavage 0.55 mmol/kg, responders (DTR), 1 h) of 14.55. For the same molecule, the plasma glucose level (diabetic rats [4]; oral gavage 0.55 mmol/kg, responders (DTR), 2 h) was 13.13, the plasma glucose level (diabetic rats [4]; oral gavage 0.55 mmol/kg, responders (DTR), 4 h) was 11.68 and the plasma glucose level (diabetic rats [4]; oral gavage 0.55 mmol/kg, responders (DTR), 6 h) was 9.47. It also gave a plasma glucose level (diabetic rats [4]; oral gavage 0.55 mmol/kg, responders (DTR), 8 h) of 9.27, a plasma glucose level (diabetic rats [4]; oral gavage 0.55 mmol/kg, responders (DTR), 12 h) of 7.01 and a plasma glucose level (diabetic rats [4]; oral gavage 0.55 mmol/kg, responders (DTR), 24 h) of 6.31. For the same molecule, the “animals that developed hypoglycemia” value (diabetic rats [5]; 15 mg/kg i.p.) was “Two animals”, the “rats responding with a decrease in blood glucose” value (diabetic rats [5]; 15 mg/kg i.p. (0.05 mmol/kg), suspension in 1% methyl cellulose) was “Nine out of the twelve” and the fluid intake (diabetic rats [6]; 0.46-0.92 mmol/kg) was “decreased to normal”. The blood glucose reduction (diabetic rats [6]; 0.46-0.92 mmol/kg (150-300 mg/kg), four diabetic rats) was “reduced blood glucose in four diabetic rats into the normal range”.

Source: patent publication US5888993A, “Vanadium compounds in the treatment of elevated blood sugar levels” (The University of British Columbia, priority 1997, dated 1999)
